Data on 3 molecules can be found in doi:10.1101/2020.10.02.321802v3 (bioRxiv, 2020).

Data set [1] has as its system E. coli MG1655. In words: MIC and IC50 measurement. It is filed as cell-based, Escherichia coli. As to conditions: for IC50 / MIC: OD590 after 16 hours.
The subject of another data set is P. aeruginosa PA14. In words: MIC and IC50 measurement. It is filed as cell-based, Pseudomonas aeruginosa. As to conditions: for IC50 / MIC: OD590 after 16 hours.
The subject of data set [2] is E. coli MG1655. In words: Growth curves with single AMPs and combinations of AMPs. It is filed as cell-based, Escherichia coli. The conditions noted are these: single compound at the "full" concentration, 6 hours.
For another data set, the system named is E. coli ATCC 25922. In words: MIC and IC50 measurement. It is filed as cell-based, Escherichia coli. As to conditions: for IC50 / MIC: OD590 after 16 hours.
The test system of another data set is S. aureus ATCC 29213. The data set is described as follows: Selection of resistant mutants by serial passage, MIC per passage. Format: cell-based, Staphylococcus aureus.
For data set [3] the following is noted: ref Michod et al., 2009; cited from earlier work.
Data set [4] relates to ΔlpxL deletion mutant (Keio deletion library). The data set is described as follows: MIC and IC50 on Keio collection strains. Format: cell-based, Escherichia coli.
Data set [5] deals with wild-type strain (Keio deletion library). The data set is described as follows: MIC and IC50 on Keio collection strains. Format: cell-based, Escherichia coli.
The test system of data set [6] is ΔrfaY deletion mutant (Keio deletion library). In words: MIC and IC50 on Keio collection strains. Format: cell-based, Escherichia coli.
The mark [7] stands for this setting: BM2 Mg^high (BM2 with 2 mM MgSO4).
[8] abbreviates: BM2 Mg^low (BM2 with 20 μM MgSO4).
Setting [9] is: LB Mg^high (LB with 2 mM MgSO4).
The mark [10] stands for this setting: LB containing EDTA at concentrations that do not affect bacterial proliferation.

In brackets after ≈: the same amount, converted by molar mass. Bridge positions count the residues as written; N and C are the ends. Square brackets hold non-standard residues; d marks the D form. Peptide text beside a SMILES is read from it. * marks the point of attachment. X1 = CC[C@H](C)CCCCC(=O)*; Dab = NCC[C@H](N)C(=O)O

Take `CC[C@H](C)CCCCC(=O)N[C@@H](CCN)C(=O)N[C@H](C(=O)N[C@@H](CCN)C(=O)N[C@H]1CCNC(=O)[C@H]([C@@H](C)O)NC(=O)[C@H](CCN)NC(=O)[C@H](CCN)NC(=O)[C@H](CC(C)C)NC(=O)[C@@H](Cc2ccccc2)NC(=O)[C@H](CCN)NC1=O)[C@@H](C)O` [Polymyxin B, polymyxin B] (X1-[Dab]T[Dab][Dab][Dab][dF]L[Dab][Dab]T; lactam 4-C (inferred); N-terminus assumed): the IC50 turned out to be 0.8 µg/mL in the data set on E. coli MG1655 [1] (setting [7]); 1.0 µg/mL with E. coli MG1655 [1] (setting [8]); 0.6 µg/mL in the data set with E. coli MG1655 [1] (LB, GraphPad Prism 8); 0.5 µg/mL with P. aeruginosa PA14 (setting [7]); 2.1 µg/mL with P. aeruginosa PA14 (LB); 2.7 µg/mL in the data set on E. coli ATCC 25922 (setting [9]). The molecule also came in with a half-inhibitory concentration (IC50) in the data set on E. coli ATCC 25922 (LB) of 1.8 µg/mL. In addition, the MIC in the data set with E. coli MG1655 [1] (setting [7]) came out at 2 µg/mL; with E. coli MG1655 [1] (setting [8]), 2 µg/mL; in the data set on E. coli MG1655 [1] (setting [9]), 2 µg/mL; in the data set on E. coli MG1655 [1] (LB), 1 µg/mL; with P. aeruginosa PA14 (setting [7]), 1 µg/mL; in the data set on P. aeruginosa PA14 (setting [8]), 4 µg/mL. Besides, the MIC in the data set with P. aeruginosa PA14 (setting [9]) was determined as 2 µg/mL; against P. aeruginosa PA14 (LB), 4 µg/mL; against E. coli ATCC 25922 (setting [9]), 4 µg/mL; against E. coli ATCC 25922 (LB), 2 µg/mL. Further, the “impact of low magnesium in BM2 medium on MIC” value in the data set with E. coli MG1655 [1] (BM2 Mg^low vs BM2 Mg^high) was “no impact”. Moreover, the “effect of EDTA on MIC” value with E. coli MG1655 [1] (setting [10]) and in the data set with E. coli ATCC 25922 (setting [10]) was “less affected” in each case. Moreover, the “effect of soluble LPS on efficacy (MIC)” value in the data set on E. coli MG1655 [1] (LB containing purified E. coli LPS, averages of two independent experiments) was “greatly diminishes the efficacy”. Further, the “increase of MIC by low magnesium in BM2 medium” value in the data set with P. aeruginosa PA14 (BM2 Mg^low vs BM2 Mg^high) is 4 fold. The growth inhibition with E. coli MG1655 [2] was ~ 35%.

For `CSCC[C@@H](NC(=O)[C@@H](Cc1c[nH]c2ccccc12)NC(=O)[C@H](NC(=O)[C@H](NC(=O)[C@@H](CC(N)=O)NC(=O)[C@@H](CC(C)C)NC(=O)[C@@H](CCCNC(=N)N)NC(=O)[C@H](NC(=O)[C@H](N)CC(=O)O)[C@H](C)O)[C@H](C)O)C(C)C)C(=O)N[C@H](Cc1c[nH]c2ccccc12)C(=O)NCC(=O)NCC(=O)N[C@H](CCCNC(=N)N)C(=O)N[C@H](CCCNC(=N)N)C(=O)N[C@H](CCCNC(=N)N)C(=O)N[C@H](CCC(N)=O)C(=O)N[C@H](CCCNC(=N)N)C(=O)N[C@H](CCCNC(=N)N)C(=O)N[C@H](CCCCN)C(=O)N[C@H](CCCCN)C(=O)N[C@H](CCCNC(=N)N)C(=O)NCC(=O)O` [TAT-RasGAP317-326] (H-[dD][dT][dR][dL][dN][dT][dV][dW][dM][dW]GG[dR][dR][dR][dQ][dR][dR][dK][dK][dR]G-OH), the IC50 is 2 µM with E. coli MG1655 [1] (setting [7]); 0.3 µM with E. coli MG1655 [1] (setting [8]); 16.3 µM in the data set on E. coli MG1655 [1] (setting [9]); 3 µM in the data set with E. coli MG1655 [1] (LB, GraphPad Prism 8); 10.1 µM in the data set on P. aeruginosa PA14 (setting [7]); 1.7 µM with P. aeruginosa PA14 (setting [8]). Besides, the IC50 in the data set on P. aeruginosa PA14 (setting [9]) worked out at 20.8 µM; with P. aeruginosa PA14 (LB) it was 7.2 µM; in [4] (Strain 1) it was 2 µM; in data set [4] (Strain 2), 2.2 µM; in [5] (Strain 1), 4.1 µM; in data set [5] (Strain 2), 4.8 µM. The IC50 in the data set with E. coli ATCC 25922 (setting [9]) was determined as 52 µM; in the data set with E. coli ATCC 25922 (LB) it was 5.2 µM; in data set [6] (Strain 1), 7.1 µM; in data set [6] (Strain 2) it was 7.8 µM. In addition, the minimal inhibitory concentration (MIC) stood at 4 µM against E. coli MG1655 [1] (setting [7]); 0.5 µM against E. coli MG1655 [1] (setting [8]); 32 µM with E. coli MG1655 [1] (setting [9]); 8 µM against E. coli MG1655 [1] (LB); 32 µM in the data set on P. aeruginosa PA14 (setting [7]); 4 µM against P. aeruginosa PA14 (setting [8]). Besides, the minimum inhibitory concentration (MIC) in the data set with P. aeruginosa PA14 (setting [9]) worked out at 64 µM; in the data set with P. aeruginosa PA14 (LB), 32 µM; in data set [4] (Strain 1), 2.5 µM (≈ 7.04 µg/mL); in data set [4] (Strain 2), 2.5 µM (≈ 7.04 µg/mL); in [5] (Strain 1), 7.5 µM (≈ 21.1 µg/mL); in data set [5] (Strain 2), 7.5 µM (≈ 21.1 µg/mL). The minimal inhibitory concentration (MIC) in the data set on E. coli ATCC 25922 (setting [9]) was determined as 128 µM; in the data set on E. coli ATCC 25922 (LB) it was 8 µM; in data set [6] (Strain 1), 10 µM (≈ 28.1 µg/mL); in data set [6] (Strain 2), 10 µM (≈ 28.1 µg/mL). The MIC after selection in the data set on S. aureus ATCC 29213 (S. aureus passaged in presence of peptide, rapidly increased) was 256 µM. Moreover, the “MIC of the parental strain” value with S. aureus ATCC 29213 (parental strain of S. aureus) was 64 to 128 µM. Besides, in data set [3], the biodistribution and clearance entry is “poor biodistribution and rapid clearance”.

In the case of melittin, the growth inhibition with E. coli MG1655 [2] was ~ 20%.
